Experiments:
[1] = biological target: D(3) dopamine receptor (Homo sapiens, UniProt P35462); assay: Selectivity interaction (Dopamine D3 receptor assay, human recombinant ) EUB0000877a DRD3
[2] = biological target: T1, Misshapen-like kinase 1 (Homo sapiens, UniProt Q8N4C8); assay: Selectivity interaction (Enzymatic assay) EUB0001199aCl MINK1
[3] = biological target: Mitogen-activated protein kinase 14 (Homo sapiens, UniProt Q16539); assay: Selectivity interaction (Enzymatic assay) EUB0001199aCl MAPK14
[4] = biological target: Tyrosine-protein kinase BTK (Homo sapiens, UniProt Q06187); assay: Selectivity interaction (KinomeScan (DiscoverX)) EUB0000607a BTK; settings: at 10 µM
[5] = biological target: T2, Ribosomal protein S6 kinase alpha-1 (Homo sapiens, UniProt Q15418); assay: Selectivity interaction (KinomeScan (DiscoverX)) EUB0000607a RPS6KA1; settings: at 10 µM
[6] = biological target: Cyclin-dependent kinase 8 (Homo sapiens, UniProt P49336); assay: Selectivity interaction (Kinase panel (Invitrogen)) EUB0000639a CDK8; settings: at 200 nM
[7] = biological target: Protein-tyrosine kinase 2-beta (Homo sapiens) (UniProt Q14289); assay: Selectivity interaction (ActivX KiNativ screen (kinase selectivity in THP-1 cell lysates)) EUB0000639a PTK2B; assay type: subcellular; settings: lysate, at 0.01 µM
[8] = biological target: T3, Serine/threonine-protein kinase 17A (Homo sapiens) (UniProt Q9UEE5); assay: Selectivity interaction (Kinase panel (DSF assay)) EUB0001489b STK17A
T3 sequence (whole entry): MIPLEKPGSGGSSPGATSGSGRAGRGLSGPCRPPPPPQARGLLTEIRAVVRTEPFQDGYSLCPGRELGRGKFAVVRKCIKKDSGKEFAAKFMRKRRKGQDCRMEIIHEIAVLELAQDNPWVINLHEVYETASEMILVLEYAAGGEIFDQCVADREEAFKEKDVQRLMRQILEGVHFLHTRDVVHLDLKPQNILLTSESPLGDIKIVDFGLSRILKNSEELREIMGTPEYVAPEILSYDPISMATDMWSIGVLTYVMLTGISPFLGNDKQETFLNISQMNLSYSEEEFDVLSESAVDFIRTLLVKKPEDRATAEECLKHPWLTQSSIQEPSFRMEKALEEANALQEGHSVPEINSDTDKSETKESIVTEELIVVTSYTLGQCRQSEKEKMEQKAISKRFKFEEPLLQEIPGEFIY

[9] = biological target: DNA (cytosine-5)-methyltransferase 1 (Homo sapiens) (UniProt P26358); assay: Selectivity interaction (Methyltransferase screen (radiometric assays, panel of 8 PRMTs, 21 protein lysine methyltransferases, 3 DNA methyltransferases, and one RNA methyltransferase)) EUB0000271b DNMT1
[10] = biological target: T4, Tyrosine-protein kinase ITK/TSK (Homo sapiens) (UniProt Q08881); assay: Selectivity interaction (KinomeScan (DiscoverX)) EUB0000695a ITK; settings: at 100 nM
T4 sequence (whole entry): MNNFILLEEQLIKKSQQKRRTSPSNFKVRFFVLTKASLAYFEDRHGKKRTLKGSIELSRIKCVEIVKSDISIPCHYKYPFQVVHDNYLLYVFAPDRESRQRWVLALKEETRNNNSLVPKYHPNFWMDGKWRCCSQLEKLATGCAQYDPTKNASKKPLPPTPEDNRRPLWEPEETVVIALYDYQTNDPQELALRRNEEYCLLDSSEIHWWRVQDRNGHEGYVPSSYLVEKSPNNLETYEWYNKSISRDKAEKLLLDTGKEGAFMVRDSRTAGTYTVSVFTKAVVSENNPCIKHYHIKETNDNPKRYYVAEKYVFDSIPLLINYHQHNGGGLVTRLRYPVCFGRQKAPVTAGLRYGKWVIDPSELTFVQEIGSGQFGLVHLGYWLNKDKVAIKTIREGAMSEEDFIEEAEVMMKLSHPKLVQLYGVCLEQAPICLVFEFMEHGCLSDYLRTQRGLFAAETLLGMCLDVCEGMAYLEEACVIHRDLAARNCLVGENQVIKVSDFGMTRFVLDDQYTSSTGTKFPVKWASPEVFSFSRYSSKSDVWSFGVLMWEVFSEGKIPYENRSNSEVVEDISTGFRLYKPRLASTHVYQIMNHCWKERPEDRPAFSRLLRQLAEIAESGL

[11] = biological target: T2, Ribosomal protein S6 kinase alpha-1; assay: Selectivity interaction (Kinase panel (DSF assay)) EUB0001559a RPS6KA1
[12] = biological target: Serine/threonine-protein kinase 35 (Homo sapiens) (UniProt Q8TDR2); assay: Selectivity interaction (KinomeScan (DiscoverX)) EUB0000595a STK35; settings: at 10 µM
[13] = biological target: Serine/threonine-protein kinase SIK3 (Homo sapiens) (UniProt Q9Y2K2); assay: Selectivity interaction (KinomeScan (DiscoverX)) EUB0001049a SIK3; settings: at 1 µM
[14] = biological target: Casein kinase II subunit alpha (Homo sapiens, UniProt P68400); assay: Selectivity interaction (KinomeScan (DiscoverX)) EUB0001049a CSNK2A1; settings: at 1 µM
[15] = biological target: Ribosomal protein S6 kinase alpha-2 (Homo sapiens) (UniProt Q15349); assay: Selectivity interaction (Millipore kinase profiler) EUB0000124b RPS6KA2; settings: at 10 µM
[16] = biological target: Tyrosine-protein kinase JAK2 (Homo sapiens, UniProt O60674); assay: Selectivity interaction (Ambit KINOMEscan and KiNATiv profiling in Jurkat cells) EUB0000090b JAK2; assay type: cell-based; settings: at 1 µM
[17] = biological target: Calcium/calmodulin-dependent protein kinase type 1 (Homo sapiens) (UniProt Q14012); assay: Selectivity interaction (Ambit KINOMEscan and KiNATiv profiling in Jurkat cells) EUB0000090b CAMK1; assay type: cell-based; settings: at 1 µM
[18] = biological target: Serine/threonine-protein kinase PAK 3 (Homo sapiens) (UniProt O75914); assay: Selectivity interaction (KinomeScan (DiscoverX)) EUB0000045b PAK3
[19] = biological target: Angiopoietin-1 receptor (Homo sapiens) (UniProt Q02763); assay: Selectivity interaction (KinomeScan (DiscoverX)) EUB0000045b TEK
[20] = biological target: D(2) dopamine receptor (Homo sapiens, UniProt P14416); assay: Selectivity interaction (GPCR panel (PDSP screen)) EUB0001079a DRD2; settings: at 10 µM
[21] = biological target: Serine/threonine-protein kinase 24 (Homo sapiens) (UniProt Q9Y6E0); assay: Selectivity interaction (KinomeScan (DiscoverX)) EUB0000229b STK24; settings: at 10 µM
[22] = biological target: T1, Misshapen-like kinase 1; settings: at 10 µM
[23] = biological target: NT-3 growth factor receptor (Homo sapiens, UniProt Q16288); assay: Selectivity interaction (KinomeScan (DiscoverX)) EUB0000618a NTRK3; settings: at 10 µM
[24] = biological target: Dual specificity testis-specific protein kinase 1 (Homo sapiens) (UniProt Q15569); assay: Selectivity interaction (KinomeScan (DiscoverX)) EUB0000618a TESK1; settings: at 10 µM

Angiopoietin-1 receptor (Homo sapiens), sequence (Q02763 whole entry): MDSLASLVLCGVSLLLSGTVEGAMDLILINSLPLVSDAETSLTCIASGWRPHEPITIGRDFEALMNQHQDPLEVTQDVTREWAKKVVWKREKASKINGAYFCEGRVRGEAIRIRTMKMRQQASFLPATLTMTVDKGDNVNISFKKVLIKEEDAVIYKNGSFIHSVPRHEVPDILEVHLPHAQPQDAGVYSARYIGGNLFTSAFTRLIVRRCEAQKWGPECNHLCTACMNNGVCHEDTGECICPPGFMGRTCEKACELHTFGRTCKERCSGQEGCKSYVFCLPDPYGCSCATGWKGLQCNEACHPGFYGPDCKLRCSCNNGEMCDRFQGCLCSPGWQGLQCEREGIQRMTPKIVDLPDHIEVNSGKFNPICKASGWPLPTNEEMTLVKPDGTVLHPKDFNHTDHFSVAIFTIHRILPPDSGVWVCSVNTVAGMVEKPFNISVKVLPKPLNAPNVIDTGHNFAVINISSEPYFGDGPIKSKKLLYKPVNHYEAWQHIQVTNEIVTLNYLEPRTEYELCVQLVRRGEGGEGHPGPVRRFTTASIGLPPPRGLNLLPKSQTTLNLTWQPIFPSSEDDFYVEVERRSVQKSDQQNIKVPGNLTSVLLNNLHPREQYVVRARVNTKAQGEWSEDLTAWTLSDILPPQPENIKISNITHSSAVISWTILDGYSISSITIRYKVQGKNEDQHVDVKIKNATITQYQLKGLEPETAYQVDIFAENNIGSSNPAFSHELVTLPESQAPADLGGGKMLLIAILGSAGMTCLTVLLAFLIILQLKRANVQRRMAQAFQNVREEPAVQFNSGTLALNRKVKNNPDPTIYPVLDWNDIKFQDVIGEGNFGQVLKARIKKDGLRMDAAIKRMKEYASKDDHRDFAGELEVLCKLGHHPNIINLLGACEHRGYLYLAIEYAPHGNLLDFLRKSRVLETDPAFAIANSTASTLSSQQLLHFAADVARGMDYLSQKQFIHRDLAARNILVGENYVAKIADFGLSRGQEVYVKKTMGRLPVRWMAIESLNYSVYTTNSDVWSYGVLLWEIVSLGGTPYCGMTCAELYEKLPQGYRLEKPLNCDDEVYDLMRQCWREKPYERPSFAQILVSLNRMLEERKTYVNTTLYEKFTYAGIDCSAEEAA
Serine/threonine-protein kinase PAK 3 (Homo sapiens), sequence (O75914 whole entry, looked up): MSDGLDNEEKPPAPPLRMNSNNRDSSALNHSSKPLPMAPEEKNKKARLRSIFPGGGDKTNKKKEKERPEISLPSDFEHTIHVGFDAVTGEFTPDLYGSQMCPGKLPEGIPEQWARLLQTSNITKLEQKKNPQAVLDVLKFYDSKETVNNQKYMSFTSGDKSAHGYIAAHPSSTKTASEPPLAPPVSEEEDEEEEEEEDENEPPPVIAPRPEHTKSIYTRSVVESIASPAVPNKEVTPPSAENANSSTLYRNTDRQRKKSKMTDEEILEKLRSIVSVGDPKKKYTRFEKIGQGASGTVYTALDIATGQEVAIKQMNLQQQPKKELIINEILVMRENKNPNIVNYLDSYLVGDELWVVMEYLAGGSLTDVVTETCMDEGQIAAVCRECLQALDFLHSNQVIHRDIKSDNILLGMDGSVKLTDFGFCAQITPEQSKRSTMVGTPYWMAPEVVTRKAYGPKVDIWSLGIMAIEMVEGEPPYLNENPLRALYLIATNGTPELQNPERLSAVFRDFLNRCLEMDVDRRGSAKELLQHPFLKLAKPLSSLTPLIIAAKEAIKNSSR
DNA (cytosine-5)-methyltransferase 1 (Homo sapiens), sequence (P26358 whole entry): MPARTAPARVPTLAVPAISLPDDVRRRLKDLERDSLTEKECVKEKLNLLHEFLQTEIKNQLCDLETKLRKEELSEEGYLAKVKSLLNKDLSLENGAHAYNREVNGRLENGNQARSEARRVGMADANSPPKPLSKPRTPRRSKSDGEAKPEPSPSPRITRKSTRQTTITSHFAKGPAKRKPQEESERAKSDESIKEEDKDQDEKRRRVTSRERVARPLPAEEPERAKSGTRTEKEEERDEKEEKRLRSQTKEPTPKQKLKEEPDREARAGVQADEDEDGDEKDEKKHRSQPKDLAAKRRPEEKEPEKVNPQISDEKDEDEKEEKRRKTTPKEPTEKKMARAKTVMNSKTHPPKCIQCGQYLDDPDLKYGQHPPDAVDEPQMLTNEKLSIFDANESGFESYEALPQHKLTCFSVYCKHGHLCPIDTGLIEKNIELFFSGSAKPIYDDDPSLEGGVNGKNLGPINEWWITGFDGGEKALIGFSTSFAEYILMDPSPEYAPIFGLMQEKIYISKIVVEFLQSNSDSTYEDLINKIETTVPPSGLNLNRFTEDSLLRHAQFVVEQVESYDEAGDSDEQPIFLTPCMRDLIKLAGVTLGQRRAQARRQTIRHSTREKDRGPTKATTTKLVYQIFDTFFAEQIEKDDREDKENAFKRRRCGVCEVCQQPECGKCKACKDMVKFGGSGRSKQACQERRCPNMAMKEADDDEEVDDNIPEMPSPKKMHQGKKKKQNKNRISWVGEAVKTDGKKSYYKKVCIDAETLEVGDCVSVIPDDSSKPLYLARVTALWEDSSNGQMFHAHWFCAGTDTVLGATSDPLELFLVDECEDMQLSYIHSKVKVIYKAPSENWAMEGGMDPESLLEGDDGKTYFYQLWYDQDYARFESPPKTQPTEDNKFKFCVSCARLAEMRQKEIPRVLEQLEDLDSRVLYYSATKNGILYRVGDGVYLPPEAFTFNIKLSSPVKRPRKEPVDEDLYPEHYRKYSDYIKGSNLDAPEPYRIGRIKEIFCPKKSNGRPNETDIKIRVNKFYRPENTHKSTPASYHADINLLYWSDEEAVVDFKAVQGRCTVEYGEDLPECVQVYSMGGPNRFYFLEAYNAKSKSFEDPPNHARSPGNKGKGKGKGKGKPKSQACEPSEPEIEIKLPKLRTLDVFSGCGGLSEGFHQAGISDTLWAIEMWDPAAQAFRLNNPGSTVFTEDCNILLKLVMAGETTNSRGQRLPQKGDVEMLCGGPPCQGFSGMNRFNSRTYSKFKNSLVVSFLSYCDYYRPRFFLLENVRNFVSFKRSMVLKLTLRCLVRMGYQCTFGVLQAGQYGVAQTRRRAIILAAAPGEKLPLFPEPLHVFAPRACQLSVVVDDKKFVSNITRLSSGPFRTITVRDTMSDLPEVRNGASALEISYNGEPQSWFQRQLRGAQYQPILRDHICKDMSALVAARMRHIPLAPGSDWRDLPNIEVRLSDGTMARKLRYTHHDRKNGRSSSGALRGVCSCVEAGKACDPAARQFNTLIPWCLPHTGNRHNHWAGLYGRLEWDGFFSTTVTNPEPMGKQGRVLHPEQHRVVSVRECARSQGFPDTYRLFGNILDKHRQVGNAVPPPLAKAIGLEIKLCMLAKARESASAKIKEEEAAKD
T2 sequence (Q15418 whole entry): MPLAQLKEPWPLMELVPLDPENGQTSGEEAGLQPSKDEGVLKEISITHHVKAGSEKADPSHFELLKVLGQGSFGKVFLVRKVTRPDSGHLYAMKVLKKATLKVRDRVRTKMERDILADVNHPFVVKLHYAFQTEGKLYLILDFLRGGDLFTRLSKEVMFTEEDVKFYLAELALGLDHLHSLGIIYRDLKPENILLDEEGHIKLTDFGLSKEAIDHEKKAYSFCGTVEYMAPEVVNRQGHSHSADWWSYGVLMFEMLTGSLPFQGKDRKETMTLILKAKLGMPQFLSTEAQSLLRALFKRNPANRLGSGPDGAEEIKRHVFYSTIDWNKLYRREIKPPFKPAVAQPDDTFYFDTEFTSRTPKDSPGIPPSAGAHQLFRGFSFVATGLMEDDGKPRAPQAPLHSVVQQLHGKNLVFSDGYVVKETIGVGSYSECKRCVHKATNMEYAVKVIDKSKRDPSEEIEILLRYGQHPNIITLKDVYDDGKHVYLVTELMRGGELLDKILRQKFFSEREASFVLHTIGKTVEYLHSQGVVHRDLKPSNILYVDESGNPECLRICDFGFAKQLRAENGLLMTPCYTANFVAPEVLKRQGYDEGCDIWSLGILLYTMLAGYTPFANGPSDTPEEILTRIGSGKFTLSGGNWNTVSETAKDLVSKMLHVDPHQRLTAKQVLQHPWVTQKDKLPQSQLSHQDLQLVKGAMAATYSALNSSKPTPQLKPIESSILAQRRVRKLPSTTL
NT-3 growth factor receptor, sequence (Q16288 32-839 limits assumed): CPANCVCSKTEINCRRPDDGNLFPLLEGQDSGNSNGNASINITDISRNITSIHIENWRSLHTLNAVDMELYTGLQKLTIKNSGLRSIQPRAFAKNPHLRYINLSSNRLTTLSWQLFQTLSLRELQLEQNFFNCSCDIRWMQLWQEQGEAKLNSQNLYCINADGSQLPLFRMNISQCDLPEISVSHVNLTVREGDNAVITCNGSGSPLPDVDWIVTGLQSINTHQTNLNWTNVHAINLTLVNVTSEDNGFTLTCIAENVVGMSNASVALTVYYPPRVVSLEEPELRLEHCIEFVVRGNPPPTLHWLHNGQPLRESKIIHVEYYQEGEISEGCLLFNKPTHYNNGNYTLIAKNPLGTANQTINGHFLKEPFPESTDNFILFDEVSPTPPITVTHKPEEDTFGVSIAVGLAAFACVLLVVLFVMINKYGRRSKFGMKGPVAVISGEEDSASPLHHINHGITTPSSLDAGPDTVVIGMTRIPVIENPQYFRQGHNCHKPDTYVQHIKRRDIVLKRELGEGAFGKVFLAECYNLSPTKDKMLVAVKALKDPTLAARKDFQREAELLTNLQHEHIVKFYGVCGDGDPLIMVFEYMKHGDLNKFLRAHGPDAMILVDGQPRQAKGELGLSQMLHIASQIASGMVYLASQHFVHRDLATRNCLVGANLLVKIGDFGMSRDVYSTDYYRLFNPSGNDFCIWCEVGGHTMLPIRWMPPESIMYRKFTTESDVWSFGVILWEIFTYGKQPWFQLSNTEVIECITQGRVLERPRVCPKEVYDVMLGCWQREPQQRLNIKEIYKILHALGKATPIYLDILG

CCC(=O)N1CC[C@H](Nc2ncnc3c2CN(c2cnc(OC)c(C(F)(F)F)c2)CC3)C1 [LENIOLISIB]
IC50 [1]: > 30000 nM

CN1Cc2nccc(-c3cn(C)nc3-c3ccc(F)cc3)c2C1=O
IC50 [2]: 1570 nM | IC50 [3]: 861 nM

CNC(=O)Nc1ccc(-c2nc(N3CC4CCC(C3)O4)c3cnn(C4CCC5(CC4)OCCO5)c3n2)cc1
% of control [4]: 90% | % of control [5]: 100%

CC[C@@H]1[C@H](F)C(=O)N[C@@H]1COc1nccc2cc(C(N)=O)c(OC)cc12 [ZIMLOVISERTIB]
% of inhibition [6]: 40.1% | % of inhibition [7]: -0.9%

CN1CCN(C(=O)c2ccc3cc2OCCOCCNc2ccn4ncc-3c4n2)CC1
dTM [8]: 1.5 K

Cc1cc(C)cc([C@@H]2c3cc(C)ccc3NC(=O)CN2C(=O)c2ccc(Br)s2)c1
% of activity ([9]; at 1 µM): 98.3% | % of activity ([9]; at 10 µM): 97.7%

Cc1cc(F)c(C(=O)Nc2cccc(-c3nncn3C(C)C)n2)cc1-n1cnc(C2CC2)c1
% of control [10]: 100%

CN(C(=O)c1cnn2cccnc12)c1cc2c(cc1N1CCOCC1)C(=O)N(C[C@@H](F)C(C)(C)O)C2
dTM [11]: 0.5 K

COCC(=O)NC/C=C/c1ccc2ncnc(Nc3ccc(Oc4ccc(C)nc4)c(C)c3)c2c1 [CP-724714]
% of control [12]: 65%

COc1cc(Nc2nc(C)cc(-c3cnn4nc(OC)ccc34)n2)cc(C(F)(F)F)c1
% of control [13]: 82% | % of control [14]: 83%

CC(=O)Nc1cccc(-n2c(=O)n(C3CC3)c(=O)c3c(Nc4ccc(I)cc4F)n(C)c(=O)c(C)c32)c1
% of control [15]: 102%

CN(C)C/C=C/C(=O)Nc1ccc(C(=O)N2CCCC(Nc3ncc(Cl)c(-c4c[nH]c5ccccc45)n3)C2)cc1 (configuration not stated)
% of control [16]: 89% | % of control [17]: 93%

C=CC(=O)Nc1cc(-n2c(=O)ccc3cnc4ccc(-c5ccc(NS(C)(=O)=O)cc5)cc4c32)ccc1C
% of control ([18]; at 1 µM): 92% | % of control ([18]; at 10 µM): 100% | % of control ([19]; at 1 µM): 89% | % of control ([19]; at 10 µM): 99%

Nc1cnc(N2CCc3cc(S(=O)(=O)Nc4c(F)cc(Cl)cc4F)cc(N4CCCC4=O)c32)nc1 [TP-020n]
% of inhibition [20]: -0.42%

COc1cc(N(C)c2ccnc3ccc(C(F)(F)F)cc23)cc(OC)c1OC
% binding [21]: 95%

Cc1cc([C@@H](C)Nc2ccccc2C(=O)O)c2nc(N3CCOCC3)cc(=O)n2c1 [AZD-6482]
% of control [22]: 100%

O[C@H]1CC[C@H](Nc2ncc3nc(Nc4c(F)cc(F)cc4F)n([C@H]4CCOC4)c3n2)CC1
% of control [23]: 100% | % of control [24]: 78%

Source: ChEMBL document CHEMBL5465560, “Selectivity Literature for EUbOPEN Chemogenomic Library” (2024)
